Data reported in PMC5045942, “Evaluation of a novel PXR‐knockout in HepaRG™ cells” (Pharmacology Research & Perspectives, 2016).
Where “and” joins values, the source holds several entries; their conditions need not be identical. Equal entries are not always repeated. Where two headings read alike, the source gives them in different places.

Key:
CYP2B6 mRNA [1] = experiment: CYP2B6 mRNA induction in HepaRG wild-type cells (real-time PCR); type: in vitro ADME, human; conditions: for E max, induction of CYP2B6 mRNA, HepaRG: E max ± SD; for EC50: human, EC50 ± SD
Protocol: (§1) HepaRG cells were thawed in thawing and maintenance medium and plated into 96‐well collagen‐1‐coated plates at a volume of 200 μL/well. The cells were incubated at 37°C in a humidified incubator with 5% CO2 for 72 h. Test compounds were freshly dissolved in DMSO and then serum‐free induction medium to achieve a final DMSO concentration of 0.1% every 24 h.
(§2) mRNA was extracted from the cell monolayers using the SV96 total RNA isolation system according to the manufacturer's instructions. Reverse transcription of mRNA to cDNA was completed using Taqman reverse transcription (RT) assay. […] An Agilent Mx3005P thermocycler was used to run a thermal cycle of: 10 min at 25°C, 30 min at 37°C, 5 min at 95°C, and a hold phase at 4°C.
(§3) An Agilent Mx3005P thermocycler was used to determine the gene expression of selected genes. Real‐time PCR solutions were prepared as described by the manufacturer. Each reaction contained 12.5 μL volume. […] PCR conditions were 15 min at 95°C (to activate polymerase, denature cDNA, and initiate PCR) followed by 40 cycles of 15 sec at 94°C (denaturation), and 60 sec at 60°C (annealing/extension of the product). Fluorescence was measured at the end of each cycle.
(§4) Gene expression data were compared to an average of GAPDH and normalized to the control sample using the comparative threshold cycle (C(t)) method (Ct = 2^−∆∆C(t)). […] Where possible data were fitted to a sigmoidal E max model (WinNonLin Phoenix, Pharsight, 6.3.0.395). All human hepatocyte data are the average of duplicate experiments and three compound concentrations. HepaRG WT are the average of triplicate experiments completed in duplicate. HepaRG 5F and HepaRG PXR‐KO data are the average of duplicate experiments and duplicate replicates of each compound concentration (six concentrations).

CYP3A4 mRNA [2] = experiment: CYP3A4 mRNA induction in cryopreserved primary human hepatocytes (real-time PCR); conditions: for EC50 at 48 h: human, cryopreserved primary human hepatocytes
Protocol: (§5) The cells were incubated at 37°C in a humidified incubator with 5% CO2. Plating medium was replaced with maintenance medium following 4 h incubation and then maintained overnight before 48 h treatment with test compound. Test compounds were freshly dissolved in dimethyl sulfoxide (DMSO) and then culture medium to achieve a final DMSO concentration of 0.1%. A vehicle control of medium with 0.1% DMSO was included in all studies.
as §2, §3
(§6) Gene expression data were compared to an average of GAPDH and normalized to the control sample using the comparative threshold cycle (C(t)) method (Ct = 2^−∆∆C(t)). […] Where possible data were fitted to a sigmoidal E max model (WinNonLin Phoenix, Pharsight, 6.3.0.395). All human hepatocyte data are the average of duplicate experiments and three compound concentrations.

CYP2B6 = CYP2B6 enzyme activity induction (bupropion, LC-MS/MS) in PXR-KO and 5F cells; type: in vitro ADME, human; conditions: 1.5 μmol/L CITCO, 258 μmol/L phenobarbital; bupropion 100 μmol/L, 2 h; PXR-KO vs 5F cells (Fig. 3)
Protocol: Culture conditions were as described above.
P450 enzyme activity was assessed by incubating whole‐cell monolayers for 2 h at 37°C using 100 μmol/L bupropion (CYP2B6) in unsupplemented Williams E media with a final concentration of 0.1% DMSO. Reactions were quenched by removing supernatants and diluting 1:2 into ice‐cold acetonitrile. Samples were stored at −20°C until LC‐MS/MS analysis was completed.
LC‐MS/MS analysis utilized an API‐4000 Q Trap mass spectrometer with a Turbo V atmospheric pressure electrospray ionization source (AB SCIEX, Framingham, MA). Samples (40 μL) were injected onto a Fortis C18 column (3 × 50 mm, 5 μm) and eluted by a mobile phase gradient specific for each test article (mobile phase A: 0.1% formic acid in water; mobile phase B: 0.1% formic acid in acetonitrile). Flow rate was 0.5 mL/min. MS conditions: positive or negative ionization mode (4.5 kV spray voltage); source temperature of 450°C with multiple reaction monitoring specific for each analyte and internal standard parent–product ion pairs. Peak areas of analyte and internal standard and resulting ratios were quantified using Analyst 1.5.2 (AB SCIEX, Framingham, MA).

CYP2B6 mRNA [3] = experiment: CYP2B6 mRNA induction in cryopreserved primary human hepatocytes (real-time PCR); conditions: 48 h; for E max, induction of CYP2B6 mRNA, primary human hepatocyte donor D3: donor D3 (Hu8132)
Protocol: (§7) Cryopreserved male human hepatocytes were thawed in CHRM and plated into a 96‐well collagen‐1‐coated plate at a density of 7.5 × 10^4 viable cells in 200 μL of CHPM. Trypan blue exclusion was used to determine cell viability with a cut‐off of 85% viability. The cells were incubated at 37°C in a humidified incubator with 5% CO2. Plating medium was replaced with maintenance medium following 4 h incubation and then maintained overnight before 48 h treatment with test compound. Test compounds were freshly dissolved in dimethyl sulfoxide (DMSO) and then culture medium to achieve a final DMSO concentration of 0.1%. A vehicle control of medium with 0.1% DMSO was included in all studies.
as §2, §3, §6

CYP3A4 mRNA [4] = experiment: CYP3A4 mRNA induction in 5F HepaRG control cells (real-time PCR); conditions: for EC50 at 48 h: human, 5F HepaRG control cells; for EC50: read-out: EC50, induction of CYP3A4 mRNA, 5F
Protocol: (§8) 5F, CAR‐KO, and PXR‐KO HepaRG cells were thawed in recovery medium and plated into 96‐well collagen‐1‐coated plates at a volume of 200 μL/well. The cells were incubated at 37°C in a humidified incubator with 5% CO2 for 48 h. The recovery medium was replaced with maintenance medium and procedure repeated every Monday, Wednesday, and Friday for 18 days. On day 18, the maintenance medium was replaced with pre‐incubation medium for 72 h. On day 21, the cells were incubated with test compounds in serum‐free induction medium for 48 h. Test compounds were freshly dissolved in DMSO and then serum‐free induction medium to achieve a final DMSO concentration of 0.1% every 24 h. For enzyme induction assays, cells were thawed into recovery medium and plated into 24‐well plates at a volume of 1 mL/well. Culture conditions were as described above.
as §2, §3, §4

CYP2B6 mRNA [5] = experiment: CYP2B6 mRNA induction in PXR-KO HepaRG cells (real-time PCR); type: in vitro ADME, human; conditions: for E max for CYP2B6 in PXR-KO cells in comparison to other cell types (in words): PXR-KO vs 5F, HepaRG WT cells and PHHs; for EC50 at 48 h: human; for EC50 for CYP2B6 in PXR-KO cells in comparison to other cell types (in words): PXR-KO vs 5F cells / other cell types
Protocol: as §8, §2, §3, §4

CYP3A4 mRNA [6] = experiment: CYP3A4 mRNA induction in HepaRG wild-type cells (real-time PCR); conditions: for E max, induction of CYP3A4 mRNA, HepaRG: E max ± SD; for EC50: human
Protocol: as §1, §2, §3, §4

CYP2B6 mRNA [7] = experiment: in vitro; conditions: human
Protocol: as §7, §2, §3, §6

CYP2B6 mRNA [8] = experiment: CYP2B6 mRNA induction in 5F HepaRG control cells (real-time PCR); type: in vitro ADME, human; conditions: for E max, induction of CYP2B6 mRNA, 5F / EC50 / EC50 at 48 h: 5F cells; for EC50 at 48 h: human
Protocol: as §8, §2, §3, §4

CYP3A4 mRNA [9] = experiment: CYP3A4 mRNA induction in PXR-KO HepaRG cells (real-time PCR)
Protocol: as §8, §2, §3, §4

CYP3A4 mRNA [10] = experiment: in vitro; conditions: human, EC50, induction of CYP3A4 mRNA, 5F
Protocol: as §8, §2, §3, §4

CYP3A4 mRNA [11] = conditions: human
Protocol: as §1, §2, §3, §4

CYP3A4 mRNA [12] = experiment: in vitro; conditions: human, EC50, induction of CYP3A4 mRNA
Protocol: as §5, §2, §3, §6

CYP3A4 mRNA [13] = tested on: CYP3A4 mRNA
Protocol: as §8, §2, §3, §4

CYP3A4 mRNA [14] = conditions: human; remark: listed apart in the source
Protocol: as §8, §2, §3, §4

CYP3A4 mRNA [15] = tested on: CYP3A4 mRNA; remark: listed apart in the source
Protocol: as §5, §2, §3, §6

[16] = donor D1 (Hu1455), NE = no effect observed, relative gene expression fold change <2
[17] = 5F cells, 48 h, value of each individual experiment (two per cell)
[18] = EC50, induction of CYP3A4 mRNA, 5F, 5F cells, 48 h, value of each individual experiment (two per cell)
[19] = cryopreserved primary human hepatocytes, donor D1 (Hu1455)
[20] = cryopreserved primary human hepatocytes, donor D3 (Hu8132)
[21] = 48 h, value of each individual experiment (two per cell)
[22] = PXR-KO HepaRG cells, compared with 5F cells
[23] = 5F HepaRG control cells, 48 h, value of each individual experiment (two per cell), read-out: EC50, induction of CYP2B6 mRNA, 5F
[24] = PXR-KO vs 5F, HepaRG WT cells and PHHs

Row | Structure (SMILES) | E max, induction of CYP2B6 mRNA, HepaRG (CYP2B6 mRNA [1]) | EC50 (CYP2B6 mRNA [1]) | CYP2B6-induced activity response (CYP2B6) | E max, induction of CYP2B6 mRNA, primary human hepatocyte donor D1 (CYP2B6 mRNA [3]; [16]) | E max, induction of CYP2B6 mRNA, primary human hepatocyte donor D3 (CYP2B6 mRNA [3]) | E max, induction of CYP3A4 mRNA, 5F (CYP3A4 mRNA [4]; [17]) | EC50 at 48 h (CYP3A4 mRNA [4]; [18]) | EC50 (CYP3A4 mRNA [4]; [17]) | E max for CYP2B6 in PXR-KO cells in comparison to other cell types (in words) (CYP2B6 mRNA [5]) | EC50 at 48 h (CYP2B6 mRNA [5]; PXR-KO HepaRG cells, 48 h) | E max, induction of CYP3A4 mRNA, HepaRG (CYP3A4 mRNA [6]) | EC50 (CYP3A4 mRNA [6]) | EC50 at 48 h (CYP2B6 mRNA [7]; [19]) | EC50 at 48 h (CYP2B6 mRNA [7]; [20]) | E max, induction of CYP2B6 mRNA, 5F (CYP2B6 mRNA [8]; [21]) | EC50 (CYP2B6 mRNA [8]; [21]) | EC50 for CYP2B6 in PXR-KO cells in comparison to other cell types (in words) (CYP2B6 mRNA [5]) | EC50 at 48 h (CYP2B6 mRNA [8]; [23]) | CYP3A4 induction response in PXR-KO cells (in words) (CYP3A4 mRNA [13]) | also measured
1 | Clc1ccc(-c2nc3sccn3c2C=NOCc2ccc(Cl)c(Cl)c2)cc1 [CITCO, 6‐(4‐chlorophenyl)imidazo[2,1‐b][1,3]thiazole‐5‐carbaldehyde O‐(3,4‐dichlorobenzyl)oxime] | 14.2 ± 7.4 | 0.03 ± 0.01 µM | greater in the PXR‐KO cells | 6.0 | 5.5 | 6.4 and 7.1 | 1.9 µM | 2 µM | similar | 0.3 µM | 21.1 ± 4.6 | 1.5 ± 0.1 µM | 0.2 µM | 0.3 µM | 17.0 and 22.5 | 1 µM | – | – | – | E max, induction of CYP3A4 mRNA, primary human hepatocyte donor D1 (CYP3A4 mRNA [2]; donor D1 (Hu1455), 48 h): 3.5; E max, induction of CYP3A4 mRNA, primary human hepatocyte donor D3 (CYP3A4 mRNA [2]; donor D3 (Hu8132), 48 h): 2.3; EC50 at 48 h (CYP3A4 mRNA [2]; donor D1 (Hu1455)): 0.3 µM; EC50 at 48 h (CYP3A4 mRNA [2]; donor D3 (Hu8132)): 0.4 µM; CYP2B6 induction response in 5F cells (in words) (CYP2B6 mRNA [8]): responsive; EC50 at 48 h (CYP2B6 mRNA [8]; 5F HepaRG control cells, single value given in text, data the average of two experiments, read-out: EC50 of CYP2B6 induction in 5F cells): 0.5 µM; CYP3A4 induction response in PXR-KO cells (in words) (CYP3A4 mRNA [9]; [22]): maintained
2 | NC(=O)N1c2ccccc2C=Cc2ccccc21 [Carbamazepine, carbamazepine] | 10.7 ± 4.3 | 12 ± 7.3 µM | – | – | – | 29.3 and 21.6 | 37.4 µM | – | lower | – | 33.5 ± 12.6 | 24 ± 12.2 µM | – | – | 3.1 and 7.4 | 5.4 µM | increased | 8.4 µM | – | EC50 at 48 h (CYP3A4 mRNA [4]; EC50 of CYP3A4 induction in 5F cells, single value given in text, data the average of two experiments): 38 µM; E max for CYP3A4 in PXR-KO cells in comparison to other cell types (in words) (CYP3A4 mRNA [9]; [24]): ~four‐fold lower; EC50 for CYP3A4 in PXR-KO cells in comparison to other cell types (in words) (CYP3A4 mRNA [9]; [24]): similar; EC50 at 48 h (CYP3A4 mRNA [9]; human, PXR-KO HepaRG cells): 49 µM
3 | CCC1(c2ccccc2)C(=O)NC(=O)NC1=O [Phenobarbital, phenobarbital] | 68.9 ± 47.3 | 170 ± 6.8 µM | greater in the PXR‐KO cells | 20.2 | 26.3 | – | – | – | – | 98 µM | – | – | – | – | 5.9 and 5.5 | 195 µM | in agreement between the cell lines | – | much reduced | EC50 (CYP3A4 mRNA [10]): 108 µM; E max, induction of CYP3A4 mRNA, HepaRG (CYP3A4 mRNA [11]): 110.0 ± 12.8; EC50 (CYP3A4 mRNA [12]; primary human hepatocyte donor D1): 250 µM; EC50 (CYP3A4 mRNA [12]; primary human hepatocyte donor D2): 366 µM; EC50 (CYP3A4 mRNA [12]; primary human hepatocyte donor D3): 177 µM; E max of CYP3A4 induction in PXR-KO cells (CYP3A4 mRNA [13]; human): 3.3; E max, induction of CYP3A4 mRNA, 5F (CYP3A4 mRNA [14]): 17.3, 28.1; EC50 (CYP3A4 mRNA [14]): 166 µM; E max, induction of CYP3A4 mRNA, primary human hepatocyte donor D2 (CYP3A4 mRNA [15]; hepatocytes): 13.3; E max, induction of CYP3A4 mRNA, primary human hepatocyte donor D3 (CYP3A4 mRNA [15]; hepatocytes): 81.8; EC50 (CYP3A4 mRNA [15]; male, human): 251 µM; EC50 (CYP2B6 mRNA [3]; read-out: EC50, induction of CYP2B6 mRNA, primary human hepatocyte donor D1, donor D1 (Hu1455)): 98.9 µM; E max of CYP2B6 induction in PXR-KO cells (CYP2B6 mRNA [5]; PXR-KO HepaRG cells, 48 h): 11.8; EC50 at 48 h (CYP2B6 mRNA [7]; male): 186 µM; EC50 at 48 h (CYP2B6 mRNA [8]; 48 h, value of each individual experiment (two per cell), read-out: EC50, induction of CYP2B6 mRNA, 5F): 145 µM
4 | O=C1NC(=O)C(c2ccccc2)(c2ccccc2)N1 [Phenytoin, phenytoin] | 14.2 ± 3.7 | 2.7 ± 1.7 µM | – | – | – | 16.0 and 20.8 | 18.1 µM | 19.9 µM | lower | – | 89.6 ± 8.1 | 42.6 ± 6.6 µM | – | – | 7.3 and 10.6 | 7.8 µM | increased | 5.1 µM | much reduced | E max for CYP3A4 in PXR-KO cells in comparison to other cell types (in words) (CYP3A4 mRNA [13]): lower; EC50 for CYP3A4 in PXR-KO cells in comparison to other cell types (in words) (CYP3A4 mRNA [13]): increased
5 | CO[C@H]1/C=C/O[C@@]2(C)Oc3c(C)c(O)c4c(O)c(c(/C=N/N5CCN(C)CC5)c(O)c4c3C2=O)NC(=O)/C(C)=C\C=C\[C@H](C)[C@H](O)[C@@H](C)[C@@H](O)[C@@H](C)[C@H](OC(C)=O)[C@@H]1C [Rifampicin, rifampicin] | 5.2 ± 2.9 | 0.3 ± 0.2 µM | – | 3.9 | 16.3 | – | – | – | – | – | – | – | 0.1 µM | 5.5 µM | 18.9 and 12.9 | 1.7 µM and 0.7 µM | – | – | – | E max, induction of CYP2B6 mRNA, primary human hepatocyte donor D2 (CYP2B6 mRNA [3]; donor D2 (Hu1601), NE = no effect observed, relative gene expression fold change <2): 4.3; CYP2B6 induction response in PXR-KO cells (in words) (CYP2B6 mRNA [5]; [22]): No response; EC50 at 48 h (CYP2B6 mRNA [7]; cryopreserved primary human hepatocytes, donor D2 (Hu1601)): 5.2 µM
